Measured values as given in US20150166664A1, “NOVEL THERAPEUTIC TREATMENTS WITH ANTI-HER2 ANTIBODIES HAVING A LOW FUCOSYLATION” (Glycotope GmbH, priority 2012, published 2015).

Experiments:
[1] = Prevention of infusion related reactions by pre-medication; format: in vivo, human; details: pretreatment with paracetamol 1000 mg evening before and 1 h before, optionally methylprednisolone 125 mg 30 min before
Procedure: Without the use of steroids, IRRs occurred in all but one patient, at least once (grade 1 to 3). Therefore, it is recommended to use a pre-medication comprising and preferably consisting of steroids and paracetamol and to restrict the respective pre-medication to the first infusion and the single next infusion following an IRR. Preferably, paracetamol is given on the evening before and one hour before the infusion with the reduced […] anti-HER2 antibody. Steroids (for example 125 mg methylprednisolone) preferably will be administered 30 minutes before the infusion to the patient.

SK-BR-3 cells = assay: MTT proliferation assay; format: cell-based, human; details: 20 nM, 4 days, positive control
Procedure: MTT assay is a non-radioactive assay based on the cleavage of the soluble yellow tetrazolium salt MTT (3-[4,5-Dimethylthiazol-2-yl]-2,5-diphenyltetrazolium bromide; Thiazolyl Blue) by mitochondrial dehydrogenases of viable cells. […] The absorption signal is a direct measure of viable cells in the culture.
Briefly, SK-BR-3 cells were grown for 2 days in 96-well flat bottom plates. […] Supernatant was completely removed and MTT was added. Cells were incubated for 2 hours with MTT at 37° C. in a humidified CO2 incubator. The supernatant was removed and cells were lysed using HCl and 2-propanol containing lysis buffer for 1 h at room temperature in the dark. Absorption at 570 nm/630 nm was measured in a plate reader Infinite F200 (Tecan Austria GmbH).

[2] = test system: incurable, locally advanced, recurrent or metastatic solid tumors; details: i.v. every 3 weeks, cited from earlier work

**Q.** For `CC(=O)Nc1ccc(O)cc1` [paracetamol, N-(4-hydroxyphenyl)acetamide], which “patients who did not show any IRR upon Fuc− trastuzumab infusion” value [1] is on record?
**A.** The value was roughly 50%.

**Q.** With `CC(=O)O[C@H]1C(=O)[C@@]2(C)[C@H]([C@H](OC(=O)c3ccccc3)[C@]3(O)C[C@H](OC(=O)[C@H](O)[C@@H](NC(=O)c4ccccc4)c4ccccc4)C(C)=C1C3(C)C)[C@]1(OC(C)=O)CO[C@@H]1C[C@@H]2O` [Taxol, paclitaxel] as the compound, how does the “proliferation compared to the medium control” value (SK-BR-3 cells) read?
**A.** The value was 6%.

**Q.** With “pertuzumab: anti-HER2 antibody, HER dimerisation inhibitor” as the compound, how does the confirmed partial responses [2] read?
**A.** Its confirmed partial responses is 2 Patients.

**Q.** What about the tumor regression ([2]; patients evaluable for response) of the same compound?
**A.** The tumor regression was 3 of 20.
